Test results: PMC9919490, “Synthesis and Biological Evaluation of Novel Dispiro-Indolinones with Anticancer Activity” (Molecules, 2023)

How the values were obtained:
[1] = Solubility in aqueous media (observation); type: physicochemical; details: observed in acute toxicity pilot, doses > 2500 mg/kg not feasible
Method: To select the doses, the pilot experiments were carried out on a minimum number of animals. […] When administered in large doses during autopsy in the abdominal cavities of the mice, on the inner wall and membranes of the abdominal organs, remnants of the non-absorbed drug were found in the form of white layers, indicating incomplete absorption and insufficient solubility of the agent. […] According to the data obtained from the trial experiment, in the main study—with intraperitoneal administration—a dose of 2500 mg/kg was used.

HCT^wt cells = assay: MTT cytotoxicity assay, HCT^wt (p53 pos); type: cell-based; details: 48 h
LNCaP cells = assay: MTT cytotoxicity assay, LNCaP (p53 pos); type: cell-based; details: Homo sapiens, LNCaP, 48 h
P388 = P388 transplant model in mice; type: in vivo; details: for ALS (average life span): control 16.6 ± 1.8 d
Method: To preliminary estimate the antitumor effect of the compound in vivo, transplant P388 and HCT116 xenograft mouse models were used.
Prior to the trials, the animals were split into different groups (five mice per group). One group was monitored as a control population, where the animals were kept untreated, while the other groups were subjected to the tested compound. […] Four independent trials were carried out.
For the first evaluation, the sample was initially injected i.p. on day 2 of the study, and the treatment was subsequently continued during the following 9 days (total 10 d course). The typical doses were calculated considering the average body weight of the animals (20 g) and ranged between groups 1 and 3; group 4 was assigned as a control population. […] To verify the obtained results, we performed the second evaluation using the following schedule: the first group was administered i.p. with 500 mg/kg (5000 mg/kg), the second group was given 750 mg/kg (7500 mg/kg), and the third group was given 1000 mg/kg (10,000 mg/kg). We also carried out the third trial with an appropriate dose of 1000 mg/kg. For p.o. administration (trial 4), we used a single dose (170 mg/kg) of the unmodified compound; the cumulative dose was 1700 mg/kg.
DBA2 mice were used as donors of cancerous mass; a total of 50 animals were recruited. Twenty-three conventional, immunodeficient female mice (BALB/c nude, 20–23 g) were housed in RAMS and used as donors and recipients for HCT116 cells.
For the evaluation of the compound against leucosis in vivo, we used 5 and 8 passages of P388 culture. […]

PC3 cells = assay: MTT cytotoxicity assay, PC3 (p53 neg); type: cell-based; details: Homo sapiens, PC-3, 48 h
[2] = test system: p53, PUMA, CASPASE-3 in HCTwt cells; assay: Western blot, p53 and p53-dependent apoptosis proteins; type: cell-based
Method: To verify the mechanism of cytotoxic action of the synthesized dispiro-indolinones, Western blot testing of dispiro-indolinone 29 was performed using the p53-expressing HCTwt and LNCaP cell lines. Both the p53 protein and the proteins involved in the p53-dependent process of apoptosis (i.e., BAX, NOXA, and PUMA) were determined. For comparison, similar testing was carried out for a cell line not expressing p53 (HCT^(−/−)).

Acute toxicity = type: in vivo; details: for body weight (M ± m): i.p. 2500 mg/kg
Method: Acute toxicity tests were performed on mature outbred mice (male and female). The design of the experiment is specified in Table S3 (Supplementary Materials).
To select the doses, the pilot experiments were carried out on a minimum number of animals.
The surviving animals were subjected to euthanasia and necropsy on the 29th day of the experiment to study the effects of the test agent on their internal organs.
Outbred mice (males and females) were used in the experiments. Intraperitoneal injections were applied in the posterior third of the abdomen, slightly departing from the midline. The mice were injected with 1 mL of the solution. […] The solution was prepared ex tempore. Doses were calculated for each animal separately, according to body weight data.
The group arithmetic mean (M) and standard error of the mean (m) were calculated. Statistical significance of the differences was assessed using Student’s t-test. The differences between these groups were considered significant at p < 0.05.

[3] = first trial, i.p. 295 mg/kg (g1)
[4] = first trial, i.p. 882 mg/kg (g2)

CCOc1ccc(N2C(=O)C3(NC2=S)C(c2ccc(Cl)cc2)CN(C)C32C(=O)Nc3ccc(Br)cc32)cc1 (centres unmarked) [Compound 29]
solubility in aqueous media [1]: low solubility | IC50 (HCT^wt cells): 14.1 ± 4.2 µM | IC50 (LNCaP cells): 3.5 ± 1.9 µM | mortality at highest dose, close to the MTD (P388; 1263 mg/kg (12,630 mg/kg cumulative), day 3 after the treatment was stopped): one mouse (bw = 19 g) dying | days on which lethal outcomes were registered (P388; [3]): 16 to 24 days | LSE (lifespan extension) (P388; first trial, i.p. 295 mg/kg (g1), p > 0.05): 17% | ALS (average life span) (P388; [3]): 19.8 ± 3.0 days | days on which lethal outcomes were registered (P388; [4]): 18 to 22 days | LSE (lifespan extension) (P388; first trial, i.p. 882 mg/kg (g2), p > 0.05): 19% | ALS (average life span) (P388; [4]): 19.4 ± 1.7 days | days on which deaths were observed (P388; first trial, i.p. 1176 mg/kg (g3)): 14 to 22 days | TGRI (P388; first trial, i.p. 1176 mg/kg (g3), subsequent three days): 40% | TGRI (P388; first trial, i.p. 1176 mg/kg daily (g3), 24 h after the treatment was discontinued): 76% | T/C (P388; first trial, i.p. o.d. 10 days, 295 and 882 mg/kg): < 42% | TGRI (tumor growth rate inhibition) (P388; first trial, sample (17% compound, Pluronic F-127) i.p. o.d. 10 days, 295 mg/kg (g1) and 882 mg/kg (g2), p > 0.05): 32–37% | TGRI (P388; i.p. 500 mg/kg): approx. 50% | Т/C% (P388; p.o. 170 mg/kg o.d. 10 days, day 12): 84% | Tumor volume, av. volume (P388; p.o. 170 mg/kg o.d. 10 days, day 12, control 570): 481 mm3 | Tumor volume, av. volume (P388; p.o. 170 mg/kg o.d. 10 days, day 15, control 804): 1099 mm3 | TGRI (P388; second trial, i.p. 750 mg/kg o.d., day 2 after the treatment was completed, p = 0.002): 68% | TGRI (P388; second trial, i.p. 750 mg/kg o.d., subsequent 3 days): 62% | LSE (P388; third trial, i.p. 1000 mg/kg o.d.): 33.33% | TGRI (P388; third trial, i.p. 1000 mg/kg o.d. 10 days, day 2 after the treatment was completed): 81.3% | TGRI (P388; third trial, i.p. 1000 mg/kg o.d., day 8 after the treatment was discontinued (final control timepoint)): 93% | TGRI (P388; third trial, i.p. 1000 mg/kg o.d., following 3 days): 89% | IC50 (PC3 cells): 9.8 ± 3.7 µM | concentration / expression of the p53 protein ([2]; HCTwt cell culture, increasing concentration, nutlin-3a 20 µM positive control): slight increase | expression of CASPASE-3 ([2]; Western blot): increase | expression of PUMA ([2]; Western blot): increase | autopsy finding (Acute toxicity; 29th day after exposure, intraperitoneal 2500 mg/kg): increase in the liver, with signs of dystrophy | dynamics of body weight (Acute toxicity; intraperitoneal 2500 mg/kg, vs control mice): did not show differences from the control mice | clinical picture of intoxication (Acute toxicity; intraperitoneal, 2500 mg/kg): depressed state, a decrease in motor activity, and the release of porphyrin | time after which symptoms of intoxication disappeared (Acute toxicity; intraperitoneal, 2500 mg/kg): 30 to 60 min | deaths (Acute toxicity; intraperitoneal, 2500 mg/kg, observation 28 days): no deaths were registered | body weight (M ± m) (Acute toxicity; ♀, day 0): 23,8±0,54 grams | body weight (M ± m) (Acute toxicity; ♀, day 7): 24,0±1,25 grams | body weight (M ± m) (Acute toxicity; ♀, day 14): 24,5±0,91 grams | body weight (M ± m) (Acute toxicity; ♀, day 21): 24,0±1,13 grams | body weight (M ± m) (Acute toxicity; ♀, day 29): 25,0±1,18 grams | body weight (M ± m) (Acute toxicity; ♂, day 0): 24,6±0,53 grams | body weight (M ± m) (Acute toxicity; ♂, day 7): 25,2±0,49 grams | body weight (M ± m) (Acute toxicity; ♂, day 14): 26,9±0,58 grams | body weight (M ± m) (Acute toxicity; ♂, day 21): 26,0±0,63 grams | body weight (M ± m) (Acute toxicity; ♂, day 29): 24,1±0,32 grams
